Laboratory results published in the supplement of paper PMC10307832.

Tests used:
Assay in all cases: relative viability (nuclei count vs DMSO), 5 days (fraction); higher = more cells survive
[1] = compound: Cn1cc(-c2cnc3ccc4ccc(CS(=O)(=O)NCc5ccccn5)cc4c(=O)c3c2)cn1 [MK-8033] + NC(=O)Nc1cc(-c2cccc(F)c2)sc1C(=O)N[C@H]1CCCNC1 [AZD7762] (partner 0.2 µM)
In short: (§1)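 Lung cancer cell lines in 1536-well plates got either a single drug or a fixed anchor-drug dose together with five library-drug doses (not always all listed) in √10 steps, by pin tool, on the day after seeding. Nuclei were counted after 5 days, and relative viability is the treated-to-vehicle ratio of nuclei counts. Values are medians of duplicate plates.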

[2] = compound: CCc1c2c(nc3ccc(OC(=O)N4CCC(N5CCCCC5)CC4)cc13)-c1cc3c(c(=O)n1C2)COC(=O)[C@]3(O)CC [Irinotecan] + CCNC(=O)c1noc(-c2cc(C(C)C)c(O)cc2O)c1-c1ccc(CN2CCOCC2)cc1 [Luminespib] (partner 0.01 µM)
In short: as §1

[3] = compound: CC[C@@H](C)CNCC(=O)N1CCC2=C([C@@H]1COC3=CC=CC(=C3)C)C=CS2 [RU-SKI 43] + Cc1cc(Nc2cc(N3CCN(C)CC3)nc(Sc3ccc(NC(=O)C4CC4)cc3)n2)n[nH]1 [Tozasertib] (partner 0.1 µM)
In short: as §1

[4] = compound: CCc1c2c(nc3ccc(OC(=O)N4CCC(N5CCCCC5)CC4)cc13)-c1cc3c(c(=O)n1C2)COC(=O)[C@]3(O)CC [Irinotecan] + Cc1cc(Nc2cc(N3CCN(C)CC3)nc(Sc3ccc(NC(=O)C4CC4)cc3)n2)n[nH]1 [Tozasertib] (partner 0.1 µM)
In short: as §1

Cell Line | relative viability ([1]; first compound 0.02 µM) | relative viability ([1]; first compound 0.06325 µM) | relative viability ([1]; first compound 0.2 µM) | relative viability ([1]; first compound 0.6325 µM) | relative viability ([1]; first compound 2 µM) | relative viability ([2]; first compound 0.6325 µM) | relative viability ([2]; first compound 2 µM) | relative viability ([2]; first compound 6.325 µM) | relative viability ([2]; first compound 20 µM) | relative viability ([3]; first compound 0.1 µM) | relative viability ([3]; first compound 0.3162 µM) | relative viability ([3]; first compound 1 µM) | relative viability ([3]; first compound 3.162 µM) | relative viability ([3]; first compound 10 µM) | relative viability ([4]; first compound 0.6325 µM) | relative viability ([4]; first compound 2 µM) | relative viability ([4]; first compound 6.325 µM) | relative viability ([4]; first compound 20 µM)
NCI-H1975 | 0.72 | 0.777 | 0.691 | 0.617 | 0.689 | 0.107 | 0.201 | 0.175 | 0.235 | 0.755 | 0.852 | 0.854 | 0.712 | 0.574 | 0.929 | 0.726 | 0.354 | 0.199
NCI-H1755 | 0.487 | 0.35 | 0.384 | 0.401 | 0.452 | 0.433 | 0.415 | 0.299 | 0.241 | 0.622 | 0.651 | 0.602 | 0.571 | 0.496 | 0.469 | 0.463 | 0.316 | 0.405
EKVX | 0.695 | 0.615 | 0.693 | 0.647 | 0.63 | 0.81 | 0.667 | 0.379 | 0.154 | 0.354 | 0.379 | 0.374 | 0.372 | 0.31 | 0.336 | 0.258 | 0.303 | 0.177
EPLC-272H | 0.207 | 0.144 | 0.201 | 0.167 | 0.19 | 0.203 | 0.368 | 0.287 | 0.281 | 0.213 | 0.226 | 0.445 | 0.242 | 0.207 | 0.165 | 0.252 | 0.258 | 0.25
LCLC-97TM1 | 0.248 | 0.338 | 0.268 | 0.227 | 0.222 | 0.228 | 0.208 | 0.148 | 0.181 | 0.26 | 0.22 | 0.207 | 0.21 | 0.231 | 0.14 | 0.176 | 0.125 | 0.113
NCI-H2085 | 0.975 | 0.878 | 0.923 | 0.988 | 0.836 | 0.312 | 0.431 | 0.445 | 0.519 | 0.716 | 0.71 | 0.854 | 0.743 | 0.671 | 0.843 | 0.726 | 0.505 | 0.51
HCC-15 | 1.06 | 1.31 | 0.978 | 1.31 | 1.18 |  | 0.234 | 0.121 | 0.126 | 0.43 | 0.327 | 0.27 | 0.252 | 0.219 |  | 0.332 | 0.164 | 0.151
RERF-LC-KJ | 0.984 | 0.84 | 1.01 | 0.981 | 0.942 | 0.692 | 0.567 | 0.461 | 0.224 | 0.458 | 0.583 | 0.476 | 0.505 | 0.352 | 0.444 | 0.438 | 0.358 | 0.179
PC-3 [JPC-3] | 0.705 |  | 0.656 | 0.843 | 0.782 | 0.642 | 0.431 | 0.334 | 0.36 | 0.815 | 0.953 | 1.02 | 0.959 | 0.773 | 0.78 | 0.81 | 0.363 | 0.314
NCI-H1355 | 0.75 | 0.639 | 0.633 | 0.735 | 0.687 |  | 0.515 | 0.308 | 0.278 | 0.516 | 0.617 | 0.618 | 0.562 | 0.447 |  | 0.486 | 0.311 | 0.227
NCI-H460 | 0.77 | 0.673 | 0.571 | 0.505 | 0.598 | 0.019 | 0.0388 | 0.0428 | 0.047 | 0.545 | 0.4 | 0.544 | 0.504 | 0.274 | 0.374 | 0.186 | 0.0861 | 0.0393
LCLC-103H | 0.756 | 0.712 | 0.788 | 0.741 | 0.82 | 0.83 | 0.502 | 0.348 | 0.501 | 0.411 | 0.445 | 0.498 | 0.501 | 0.373 | 0.431 | 0.425 | 0.301 | 0.32
201T | 0.7 | 0.481 | 0.607 | 0.683 | 0.618 |  | 0.547 | 0.313 | 0.342 | 0.883 | 1.03 | 0.883 | 0.931 | 0.812 |  | 0.682 | 0.402 | 0.318
NCI-H441 | 1 | 1.09 | 1.24 | 0.984 | 0.94 | 0.231 | 0.332 | 0.304 | 0.309 | 0.597 | 0.542 | 0.541 | 0.736 | 0.554 | 0.497 | 0.443 | 0.374 | 0.295
ChaGo-K-1 | 0.872 | 0.921 | 0.857 | 0.932 | 0.82 | 0.309 | 0.332 | 0.23 | 0.282 | 0.234 | 0.203 | 0.221 | 0.22 | 0.231 | 0.216 | 0.205 | 0.193 | 0.218
HOP-62 | 0.67 | 0.722 | 0.464 | 0.471 | 0.578 | 0.254 | 0.361 | 0.203 | 0.21 | 0.359 | 0.371 | 0.479 | 0.344 | 0.287 | 0.234 | 0.328 | 0.249 | 0.215
NCI-H1651 | 0.551 | 0.397 | 0.482 | 0.479 | 0.564 | 0.573 | 0.522 | 0.281 | 0.2 | 0.649 | 0.722 | 0.839 | 0.642 | 0.572 | 0.532 | 0.575 | 0.255 | 0.183
